Source: patent publication US9624211B2, “Anti-cancer compounds” (Board of Regents, The University of Texas System, priority 2013, dated 2017)

How the values were obtained:
[1] = tested on: Skp2 Trp97Ala and Asp98Ala mutants binding to Skp1; experiment: In vitro Skp2-Skp1 binding assay with Skp2 mutants; settings: FIG. 2D
Experimental: (§1) For in vitro GST-Skp1 and Skp2 interaction, GST-Skp1 proteins purified from the bacterial lysates of BL21 competent cells transformed with pGEX-4X1-Skp1 using the Glutathione-Agarose beads according to the manufacturer's standard procedures. The GST-Skp1 proteins bound to glutathione Sepharose beads (Amersham Biosciences) were then incubated with the in vitro translated [35^S]-Skp2 for 2 hours at 4° C. in the interaction buffer with or without compound #25 (20 mM HEPES, PH 7.9, 150 mM KCl. 5 mM EDTA, 0.5 mM DTT, 0.1% (v/v) Nonidet p-40, 0.1% (w/v) BSA, 1 mM PMSF, and 10% Glycerol), washed by the NETN buffer (20 mM Tris, pH 8.0, 100 mM NaCl, 6 mM MgCl2, 1 mM EDTA, 0.5% Nonidet P-40, 1 mM DTT, 8% glycerol, 1 mM PMSF) 4 times, and subjected to 8% SDS-PAGE, followed by autoradiography.

LNCaP cells = experiment: Cell survival assay, LNCaP; type: cell-based, human
Experimental: (§2) For Skp2 inhibitor administration, 5-10×10^3 of cells with were seeded in 12 wells in triplicate, 24 h later, treated with compound #25 (refreshed every two days). Four days later, cells were harvested, stained with trypan blue, and viable cells were counted directly under the microscope using hemocytometer. For doxorubicin treatment, 8×10^3 of PC3 cells with were seeded in 12 wells in triplicate, 24 h later, treated with various dose of compound #25 in the presence or absence of 10 nM doxorubicin or 25 ng/ml cyclophosphamide for four and three days, respectively (refreshed every two days). After treatment, cells were harvested, stained with trypan blue, and viable cells were counted directly under the microscope using hemocytometer. Cellular senescence was determined by assessing SA-b-gal activity using senescence detection kit according to manufacturers' standard procedures (Calbiochem).

[2] = tested on: p27 and p21 protein expression; experiment: Immunoblotting of SCF substrates in prostate cancer cells; type: cell-based
Description: Cells were lysed with RIPA buffer in the presence of protease inhibitor cocktail (Roche). The following antibodies were used for immunoblotting analysis: anti-Skp2 (Invitrogen), anti-Xpress (Invitrogen), anti-p27 (BD transduction laboratories), anti-p21 (Santa Cruz), anti-β-actin (Sigma), anti-α-tubulin (Sigma), anti-phospho-Akt (Thr308) (Cell Signaling), anti-phospho-Akt (Ser473) (Cell Signaling), and anti-HA (Convance). For immunohistochemistry, tissues were fixed in 10% formalin and embedded in paraffin in accordance with standard procedures. Sections were stained with anti-Skp2 (Invitrogen), anti-p27 (Epitomics), anti-phosphoAkt (SerS473) (Cell signaling), anti-Glut1 (Abcam), and anti-Ki67 (Abcam). TUNEL staining was performed by using in situ cell death detection kit-POD (Roche).

[3] = target: T1, Skp1/Skp2 binding interaction (Homo sapiens, UniProt Q13309); experiment: In vitro Skp2-Skp1 binding assay (GST pull-down)
T1 construct: made in house; host or cells: GST-Skp1: E. coli BL21; Skp2: in vitro translation
T1 sequence (Q13309 whole entry): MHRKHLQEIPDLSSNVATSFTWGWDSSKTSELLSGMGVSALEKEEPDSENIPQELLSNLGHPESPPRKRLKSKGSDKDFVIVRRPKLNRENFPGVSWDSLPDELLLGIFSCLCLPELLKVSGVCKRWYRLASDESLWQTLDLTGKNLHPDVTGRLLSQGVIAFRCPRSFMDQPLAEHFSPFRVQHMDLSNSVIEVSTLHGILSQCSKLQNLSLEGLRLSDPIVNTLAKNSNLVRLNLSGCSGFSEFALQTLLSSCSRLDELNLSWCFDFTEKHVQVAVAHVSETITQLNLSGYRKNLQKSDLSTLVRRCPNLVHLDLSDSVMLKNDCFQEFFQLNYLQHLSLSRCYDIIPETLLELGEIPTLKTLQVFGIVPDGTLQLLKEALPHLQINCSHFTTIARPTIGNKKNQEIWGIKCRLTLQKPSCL
Experimental: as §1
Below are the original lead compound and 11 similar compounds that were tested for their ability to block the Skp1/Skp2 binding interaction in an in vitro assay. The quantification was made on western blot/images, and the percentages represent the amount of intact Skp1/Skp2 remaining after treatment. In vitro binding assays were performed. For in vitro GST-Skp1 and Skp2 interaction, GST-Skp1 proteins purified from the bacterial lysates of BL21 competent cells transformed with pGEX-4X1-Skp1 using the Glutathione-Agarose beads were performed according to the manufacturer's standard procedures. The GST-Skp1 proteins bound to glutathione Sepharose beads (Amersham Biosciences) were then incubated with the in vitro translated [35^S]-Skp2 for 2 hours at 4° C. in the interaction buffer with or without lead compound and 11 similar compounds (20 mM HEPES, PH 7.9, 150 mM KCl. 5 mM EDTA, 0.5 mM DTT, 0.1% (v/v) Nonidet p-40, 0.1% (w/v) BSA, 1 mM PMSF, and 10% Glycerol), washed by the NETN buffer (20 mM Tris, pH 8.0, 100 mM NaCl, 6 mM MgCl2, 1 mM EDTA, 0.5% Nonidet P-40, 1 mM DTT, 8% glycerol, 1 mM PMSF) 4 times, and subjected to 8% SDS-PAGE, followed by autoradiography. The data presented in Table 1 below was obtained using the Skp1/Skp2 binding affinity assay. The quantification percentage results listed below are based on the western blot results.

A549 xenograft tumors = experiment: A549 tumor xenograft in nude mice; type: in vivo; settings: IP injection
Experimental: Nude mice bearing PC3 or A549 xenograft tumors (around 100 mm^3) were administrated with vehicle or 80 mg/kg compound #25 on a daily basis. Tumor size was measured weekly with a caliper, and tumor volume was determined with the standard formula: L×W2×0.52, where L is the longest diameter and W the shortest diameter.

Hep3B (liver) = experiment: Cell survival assay, Hep3B; type: cell-based, human
Experimental: as §2

[4] = tested on: Skp2 Trp97Ala and Asp98Ala mutants; experiment: In vitro binding of compound to GST-Skp2 mutants by LC-MS/MS; settings: preexisting Skp2-Skp1 complex
Experimental: To corroborate this notion, the in vitro binding assay was performed to compare the binding affinity of compound #25 to WT Skp2 and Skp2 mutants (Trp97Ala and Asp98Ala) using LC-MS/MS analysis. Of note, since the nature of recombinant Skp2 protein was unstable in the absence of Skp1 (Li et al., 2005), the GST-Skp2 WT, GST-Skp2 Trp97Ala and GST-Skp2Asp98Ala mutants subjected to LC-MS/MS analysis were co-expressed, purified and preformed complex with Skp1 (FIG. 10A).

binding of Skp2 Trp97Ala and Asp98Ala mutants to Skp1 [1]: unable to inhibit
disruption of Skp2-Skp1 interaction ([3]; 5 μM): completely disrupt Skp2-Skp1 interaction
Normalized w/ vehicle treatment ([3]; amount of intact Skp1/Skp2 remaining after treatment, quantified on western blot/images): 10%
binding to Trp97Ala and Asp98Ala mutants [4]: failed to interact
Structure (SMILES): CCc1cc2c(=O)c(-c3nc4ccccc4s3)coc2c(CN2CCCCC2)c1O [compound #25, 3-(1,3-benzothiazol-2-yl)-6-ethyl-7-hydroxy-8-(1-piperidinylmethyl)-4H-chromen-4-one]
cell viability (LNCaP cells): potent effects on cell viability
stabilization/induction of SCF substrates ([2]; Skp2, Fbw7 and β-TrCP substrates, FIGS. 3E and 11A): selectively stabilized Skp2 substrates
endogenous p27 and p21 protein expression ([2]; prostate cancer cells): induced endogenous p27 and p21 protein expression
interaction between WT Skp2 and Skp1 ([3]; WT Skp2, FIG. 2D): prevented the interaction between WT Skp2 and Skp1
lung tumor growth in vivo (A549 xenograft tumors): potent effect
cell viability (Hep3B (liver)): potent suppressive effect on viability
